Legend:
[1] = test system: MPTP treated mice; test: Locomotion activity by Rota rod in MPTP treated mice; format: in vivo; conditions: day 5, MPTP alone
Experimental: Saline-injected mice are used as control (naïve mice). Mice were treated according to the following plan:
FIGS. 3A-B show the locomotion activity as tested by Rota rod latency (FIG. 3A) and Rota rod distance (FIG. 3B) on day 5 of the study (5 drug administrations).

[2] = test system: MPTP treated mice; test: Striatal dopamine levels in MPTP treated mice (HPLC); format: in vivo; conditions: for dose required to restore dopamine levels when administered alone: MPTP challenged mice, data not shown
Experimental: Striatum tissue samples were homogenized in ice in 500 ul homogenization buffer (0.1M perchloric acid, 0.02% EDTA and 1% ETOH) using OMNI Tip homogenizing kit of OMNI International (intermediate speed, 3×10 seconds with 5 seconds intervals). The homogenates were sonicated for 5 minutes then centrifuged at 15,000 RPM at 4° C. for 15 min. The supernatants were transferred into fresh tubes and Dopamine content was analyzed by HPLC.
Saline-injected mice are used as control (naïve mice).

[3] = test system: PC12 cells; test: In vitro neuroprotection assay, MPP+ induced apoptosis, MTT test; format: cell-based, rat; conditions: MPP+ treated PC12 cells, drugs alone or as DRA + MAO inhibitor combination
Experimental: (§1) For neuroprotection experiment cells were plated (1 or 0.5×10^5 Cells per well) on poly-L-lysine (Sigma) coated 96 wells tissue culture plates. Twenty four hours after plating the medium was exchanged with fresh growth medium with or without the tested drugs in the absence or presence of stressor. Cell cytotoxicity was induced by either serum starvation or Methyl-4phenylpyridium (MPP^+), 250 uM and 125 uM for PC12 and SK cells respectively. Drugs were added in different concentration alone and in combination, 30 minutes prior to the insult for a subsequent 48 or 72 hours. Neuronal cell injury was evaluated by a colorimetric assay for mitochondrial function using the MTT test (Sigma). The MTT test is based on the conversion of MTT to blue formasan crystals by viable cells. 5 mg/ml MIT reagent was added to each well (1:10 final dilution in each well). Cells were incubated for 1 hour at 37° C. and 5% CO2. Excess MIT was removed, and remaining formasan crystals were dissolved in 50 ul DMSO and were quantified in Elisa reader. The wavelength of the measurement of formasan product was 550 nm and the reference wavelength was 620 nm.
(§2) (a) PC12 and SK-N-SH Cells were incubated with 3 different concentrations of MPP+(125, 250, and 500 μM) or in growth medium lacking serum for 48 and 72 hours.
(§3) (b) Various drug combinations at various drug ratios as stated above were tested. The concentrations used were as follows: ropinirole, 400 μM, 200 μM, 100 μM, 50 μM; rasagiline, 400 μM, 200 μM, 100 μM, 50 μM, 10 μM; pramipexole, 400 μM, 200 μM, 100 μM, 50 μM; selegiline, 100, 50 μM, 10 μM, 1. Cell protection was detected by MTT.
(§4) The combinations used to treat serum-free medium induced apoptosis were ropinirole, 200 μM: rasagiline, 50 μM; ropinirole, 100 μM: rasagiline, 10 μM (FIG. 1A); pramipexole, 200 μM selegiline, 50 μM; pramipexole, 100 μM: selegiline, 10 μM (FIG. 1B); ropinirole, 200 μM: selegiline, 50 μM; and ropinirole, 100 μM: selegiline, 10 μM (FIG. 1C). […]

[4] = test system: PC12 cells; test: In vitro neuroprotection assay, serum-free medium induced apoptosis, MTT test; format: cell-based, rat; conditions: serum starved PC12 cells, drugs alone or as DRA + MAO inhibitor combination
Experimental: as §1, §2, §3, §4

Row | Structure (SMILES) | dose required to restore dopamine levels when administered alone [2] | neuroprotection effect / cell survival (% viable cells) [3] | neuroprotection effect / cell survival (% viable cells) [4] | also measured
1 | CN1CC=C(c2ccccc2)CC1 [MPTP, N-methyl-4-phenyl-1,2,3,6-tetrahydropyridine] |  |  |  | decrease in locomotion activity [1]: about 30%; depletion in dopamine levels relative to naïve mice ([2]; MPTP treatment alone): over 70%
2 | CCCN[C@H]1CCc2nc(N)sc2C1 [pramipexole] | higher than 1 mg/kg |  |  | 
3 | C#CCN[C@@H]1CCc2ccccc21 [rasagiline] | at least 0.5 mg/kg | the effect on neuroprotection was minor | the effect on neuroprotection was minor | increase in dopamine levels ([2]; high doses alone: 0.1 mg/kg rasagiline, 1 mg/kg pramipexole): significant but small increase; restoration of dopamine levels ([2]; low doses: rasagiline 0.05 mg/kg, pramipexole 0.5 mg/kg, alone or combined): did not cause a significant restoration of dopamine levels
4 | CCCN(CCC)CCc1cccc2c1CC(=O)N2 [ropinirole] |  | the effect on neuroprotection was minor | the effect on neuroprotection was minor | 
5 | C#CCN(C)[C@H](C)Cc1ccccc1 [selegiline] |  | the effect on neuroprotection was minor | the effect on neuroprotection was minor | 

From patent US9259418B2 (priority 2008, dated 2016)
